Source: patent publication US20220154282A1, “DETECTION MEANS, COMPOSITIONS AND METHODS FOR MODULATING SYNOVIAL SARCOMA CELLS” (The Broad Institute, Inc., priority 2019, published 2022)

System: Aska and SYO1 SyS cell lines
Test: SS18-SSX knockdown (shSSX vs shCt) with scRNA-Seq readout
Assay type: cell-based, human
Text: To decouple the intrinsic and extrinsic factor determining the malignant cell states in SyS Applicants first tested whether the core oncogenic and other programs were co-regulated by the genetic fusion driving SyS. Applicants turned to explore the potential regulators of these cellular programs, starting from the genetic driver. To this end, they depleted SS18-SSX in two SyS cell lines (SYO1 and Aska) using shRNA and profiled 12,263 cells with scRNA-Seq. The fusion KD led to massive and highly consistent transcriptional alternation in both cell lines (FIG. 7A, Tables 8, 9). […] Leveraging the single-cell readout Applicants confirmed that the KD impact on the core oncogenic and differentiation programs was decoupled from, and not secondary to, the repression of cellular proliferation (FIG. 7B), such that the impact on the core oncogenic and differentiation programs was observed even when controlling for the cycling status of the cells, and when considering only cycling or non-cycling cells (P<1.54*10^−13, t-test, FIG. 5B, METHODS). Thus, the fusion's impact on cell cycle may be secondary or downstream to its impact on the core oncogenic program. In addition, the fusion KD led to an induction of antigen presentation and cell autonomous immune responses, such as TNF and IFN signaling (P<1*10^−30, mixed-effects, FIG. 8A).
The SyS cell lines Aska and SYO1 were cultured using standard protocols in DMEM medium (Gibco) supplemented with 10-20% fetal bovine serum, 1% Glutamax (Gibco), 1% Sodium Pyruvate (Gibco) and 1% Penicillin-Streptomycin (Gibco) and grown in a humidified incubator at 37° C. with 5% CO2. Cells expressing a pLKO.1 vector with a scrambled shRNA hairpin control (5′-[…] CTTAGG-3′) (SEQ ID NO: 5) or a shSSX hairpin targeting SSX of the SS18-SSX fusion (5′-[…]-3′) (SEQ ID NO: 6) were prepared by lentiviral infection. In brief, lentivirus was prepared by transfection of HEK293T cells with gene delivery vector and the packaging vectors pspax2 and pMD2.G, filtration of media followed by ultracentrifugation, and then resuspension of viral pellet in PBS. Aska and SYO1 cells were infected with lentivirus for 48 hours and then underwent 5 days of selection with puromycin (2 μg/mL) prior to collection for single cell RNA-seq analysis.
The fusion program consists of genes that were differentially expressed in the Aska or SYO1 cells with the SS18-SSX shRNA (shSSX) compared to those with control shRNA (shCt) after 3 or 7 days post-infection. Gene that were previously reported (35, 36) to be bound by the SS18-SSX oncoprotein in at least two SyS cell lines were defined as direct SS18-SSX targets, and were used to stratify the SS18-SSX program to direct and indirect targets.

[1] = SSX shRNA (shSSX) vs control shRNA (shCt), ASKA and SYO1 cells, scRNA-Seq

With “shSSX: shSSX hairpin targeting SSX of the SS18-SSX fusion (5′-CAGTCACTGACAGTTAATAAA-3′), pLKO.1 lentiviral vector” the mesenchymal differentiation program [1] was “induced”, the “overall expression of the cell cycle program” value [1] was “repressed” and the “overall expression of the core oncogenic program” value [1] was “repressed”. The “immune responses (topmost differentially expressed pathways)” value (shSSX vs shCt, SyS cells stratified by cycling status) was “inducing multiple immune responses”.
